Test results as given in patent US9284325B2, “Spectinamides as anti-tuberculosis agents” (UNIVERSITY OF TENNESSEE RESEARCH FOUNDATION, priority 2009, dated 2016).
Converted amounts (≈) assume the structure as drawn. Where a name gives a salt, the structure may show the parent alone.

Experiments:
M. tuberculosis H37Rv = assay: MIC determination by microbroth dilution, anti-tuberculosis activity; format: cell-based, Mycobacterium tuberculosis; settings: Mycobacterium tuberculosis, H37RV, 168 h; read-out: MIC
[1] = system: S. aureus 8325 or strain ATCC 29213; assay: MIC determination by microbroth dilution; format: cell-based, Staphylococcus aureus; settings: Staphylococcus aureus, ATCC29213; S. aureus 8325 or strain ATCC 29213 (for 1471-1544)
[2] = system: Strep. pyogenes ATCC 700294; assay: MIC determination by microbroth dilution; format: cell-based, Streptococcus pyogenes; settings: Streptococcus pyogenes, ATCC700294, read-out: MIC S. pyogenes
[3] = system: Strep. pneumoniae DAW27 or strain R6; assay: MIC determination by microbroth dilution; format: cell-based, Streptococcus pneumoniae; settings: Streptococcus pneumoniae; Strep. pneumoniae DAW27 or strain R6 (for 1443-1544); read-out: MIC S. pneumoniae
E. faecalis ATCC 33186 = assay: MIC determination by microbroth dilution; format: cell-based, Enterococcus faecalis; settings: Enterococcus faecalis, ATCC33186
B. anthracis Sterne 34F2 = assay: microbe, parasite or virus in culture; format: cell-based, Bacillus anthracis; settings: Bacillus anthracis, STERNE34F2, read-out: MIC B. anthracis 34F2
[4] = system: Burkholderia cepacia ATCC 25416; assay: MIC determination by microbroth dilution; format: cell-based; settings: ATCC25416, read-out: MIC B. cepcia
[5] = system: Proteus mirabilis ATCC 25933; assay: MIC determination by microbroth dilution; format: cell-based; settings: ATCC25933
[6] = system: Proteus vulgaris ATCC 33420; assay: MIC determination by microbroth dilution; format: cell-based; settings: ATCC33420
[7] = system: Klebsiella pneumoniae ATCC 33495; assay: MIC determination by microbroth dilution; format: cell-based; settings: ATCC33495
[8] = system: Acinetobacter baumannii ATCC 19606; assay: MIC determination by microbroth dilution; format: cell-based; settings: ATCC19606
P. aeruginosa PAO1 = assay: MIC determination by microbroth dilution; format: cell-based, Pseudomonas aeruginosa; settings: Pseudomonas aeruginosa
[9] = system: Strenotrophomonas maltophilia ATCC 13637; assay: MIC determination by microbroth dilution; format: cell-based
E. coli K12 = assay: MIC determination by microbroth dilution; format: cell-based, Escherichia coli; settings: Escherichia coli, K12
E. coli K12 ΔtolC = assay: microbe, parasite or virus in culture; format: cell-based; settings: Escherichia coli, read-out: MIC E. coli K12 ΔtolC

SMILES | MIC (M. tuberculosis H37Rv) [µg/mL] | MIC [1] [µg/mL] | MIC [2] [µg/mL] | MIC [3] [µg/mL] | MIC (E. faecalis ATCC 33186) [µg/mL] | MIC (B. anthracis Sterne 34F2) [µg/mL] | MIC [4] [µg/mL] | MIC [5] [µg/mL] | MIC [6] [µg/mL] | MIC [7] [µg/mL] | MIC [8] [µg/mL] | MIC (P. aeruginosa PAO1) [µg/mL] | MIC [9] [µg/mL] | MIC (E. coli K12) [µg/mL] | MIC (E. coli K12 ΔtolC) [µg/mL]
CN[C@@H]1[C@H](O)[C@H](NC)C2O[C@]3(O)C(OC2[C@H]1O)O[C@H](C)C[C@H]3NC(=O)Cc1nccs1 (stereo partly drawn) [Compound 1489, 3′-Dihydro-3′-deoxy-4(R)-(thiazol-2-yl)acetylamino spectinomycin tetradrobromide] | 6.25 (≈ 13.6 µM) | 100 (≈ 218 µM) | 12.5 (≈ 27.3 µM) | 12.5 (≈ 27.3 µM) | 100 (≈ 218 µM) | > 200 | > 200 | > 200 | > 200 | > 200 | > 200 | > 200 | > 200 | 200 (≈ 436 µM) | 50 (≈ 109 µM)
CN[C@@H]1[C@H](O)[C@H](NC)C2O[C@]3(O)C(OC2[C@H]1O)O[C@H](C)C[C@H]3NC(=O)Cc1ccc([N+](=O)[O-])cn1 (stereo partly drawn) [Compound 1490, 3′-Dihydro-3′-deoxy-4(R)-(5-nitropyridin-2-yl)acetylamino spectinomycin trihydrobromide] | 6.25 | 100 | 12.5 | 12.5 | 50 | > 200 | > 200 | > 200 | > 200 | > 200 | > 200 | > 200 | > 200 | 200 | 12.5
CN[C@@H]1[C@H](O)[C@H](NC)C2O[C@]3(O)C(OC2[C@@H]1O)O[C@H](C)C[C@H]3NC(=O)Cc1nc2ccccc2s1 (stereo partly drawn) [Compound 1491, 3′-Dihydro-3′-deoxy-4(R)-(benzothiazol-2-yl)acetylamino spectinomycin trihydrobromide] | 1.6 | 100 | 12.5 | 6.25 | 25 | > 200 | > 200 | > 200 | > 200 | > 200 | > 200 | > 200 | > 200 | 200 | 12.5
CN[C@@H]1[C@H](O)[C@H](NC)C2O[C@]3(O)C(OC2[C@H]1O)O[C@H](C)C[C@H]3NC(=O)c1ccccc1F (stereo partly drawn) [Compound 1492, 3′-Dihydro-3′-deoxy-4(R)-(2-fluorobenzene-1-yl)carboxylicamino spectinomycin dihydrochloride] | > 200 | > 200 | 50 | 100 | > 200 | > 200 | > 200 | > 200 | > 200 | > 200 | > 200 | > 200 | > 200 | > 200 | 200
CN[C@@H]1[C@H](O)[C@H](NC)C2O[C@]3(O)C(OC2[C@H]1O)O[C@H](C)C[C@H]3NC(=O)[C@@H](O)CCN (stereo partly drawn) [Compound 1493, 3′-Dihydro-3′-deoxy-4(R)-(2(S)-4-amino-2-hydroxy)butanoylamino spectinomycin trihydrochloride] | > 200 | > 200 | 50 | 50 | > 200 | > 200 | > 200 | > 200 | 100 | > 200 | > 200 | > 200 | > 200 | 100 | 25
CN[C@@H]1[C@H](O)[C@H](NC)C2O[C@]3(O)C(OC2[C@H]1O)O[C@H](C)C[C@H]3NC(=O)[C@@H](C)N (stereo partly drawn) [Compound 1501, 3′-Dihydro-3′-deoxy-4(R)[2(R)-amino]propanoylamino spectinomycin Trihydrochloride] | > 200 | > 200 | > 200 | > 200 | > 200 | > 200 | > 200 | > 200 | > 200 | > 200 | > 200 | > 200 | > 200 | > 200 | > 200
CN[C@@H]1[C@H](O)[C@H](NC)C2O[C@]3(O)C(OC2[C@H]1O)O[C@H](C)C[C@H]3NC(=O)[C@H](Cc1ccccc1)NC(=O)CN (stereo partly drawn) [Compound 1502, 3′-Dihydro-3′-deoxy-4(R)-[2(S)-(2-aminoacetamido)-3-phenyl]-propanoylamino spectinomycin Trihydrochloride] | > 200 | > 200 | > 200 | > 200 | > 200 | > 200 | > 200 | > 200 | > 200 | > 200 | > 200 | > 200 | > 200 | > 200 | > 200
CN[C@@H]1[C@H](O)[C@H](NC)C2O[C@]3(O)C(OC2[C@H]1O)O[C@H](C)C[C@H]3NC(=O)CCNC(=O)c1ccccc1 (stereo partly drawn) [Compound 1503, 3′-Dihydro-3′-deoxy-4(R)-3-benzamido propanoylamino spectino-mycin Dihydrochloride] | > 200 | > 200 | > 200 | > 200 | > 200 | > 200 | > 200 | > 200 | > 200 | > 200 | > 200 | > 200 | > 200 | > 200 | > 200
CN[C@@H]1[C@H](O)[C@H](NC)C2O[C@]3(O)C(OC2[C@H]1O)O[C@H](C)C[C@H]3NC(=O)C(c1ccccc1)c1ccccc1 (stereo partly drawn) [Compound 1514, 3′-Dihydro-3′-deoxy-4(R)-(2,2-diphenyl)acetylamino spectinomycin dihydrochloride] | > 200 | > 200 | > 200 | > 200 | > 200 | > 200 | > 200 | > 200 | > 200 | > 200 | > 200 | > 200 | > 200 | > 200 | > 200
CN[C@@H]1[C@H](O)[C@H](NC)C2O[C@]3(O)C(OC2[C@H]1O)O[C@H](C)C[C@H]3NC(=O)[C@@H](N)Cc1ccccc1 (stereo partly drawn) [Compound 1515, 3′-Dihydro-3′-deoxy-4(R)-[2(S)-amino,3-phenyl]propanoylamino spectinomycin Trihydrochloride] | 200 | > 200 | 12.5 | 6.25 | > 200 | > 200 | > 200 | > 200 | 100 | > 200 | > 200 | > 200 | > 200 | > 200 | 12.5
CN[C@@H]1[C@H](O)[C@H](NC)C2O[C@]3(O)C(OC2[C@H]1O)O[C@H](C)C[C@H]3NC(=O)Cc1ccc(Br)cn1 (stereo partly drawn) [Compound 1516, 3′-Dihydro-3′-deoxy-4(R)-(5-bromopyridin-2-yl)acetylamino spectinomycin trihydrobromide] | 1.56 | 50 | 6.25 | 6.25 | 100 | > 200 | > 200 | > 200 | > 200 | > 200 | > 200 | > 200 | > 200 | > 200 | 12.5
CN[C@@H]1[C@H](O)[C@H](NC)C2O[C@]3(O)C(OC2[C@H]1O)O[C@H](C)C[C@H]3NC(=O)Cc1csc(-c2ccccc2)n1 (stereo partly drawn) [Compound 1517, 3′-Dihydro-3′-deoxy-4(R)-(2-phenylthiazol-4-yl)acetylamino spectinomycin trihydrobromide] | 50 | 200 | 6.25 | 6.25 | 100 | > 200 | > 200 | > 200 | > 200 | > 200 | > 200 | > 200 | > 200 | > 200 | 200
CN[C@@H]1[C@H](O)[C@H](NC)C2O[C@]3(O)C(OC2[C@H]1O)O[C@H](C)C[C@H]3NC(=O)CCc1ccccn1 (stereo partly drawn) [Compound 1518, 3′-Dihydro-3′-deoxy-4(R)-(pyridin-2-yl)propanoylamino spectinomycin trihydrobromide] | 50 | 200 | 6.25 | 12.5 | > 200 | > 200 | > 200 | > 200 | > 200 | > 200 | > 200 | > 200 | > 200 | > 200 | 50
